Data published in patent US20230303540A1 (Merck Sharp & Dohme LLC, priority 2020, published 2023).

Target: GST-tagged truncated human mutant G2019S LRRK2 (Homo sapiens, UniProt Q5S007, G2019S)
Test: LRRK2 G2019S Km ATP LanthaScreen assay
Format: biochemical
Conditions: 134 μM ATP (Km ATP), LRRKtide substrate, mean IC50 values; read-out: LRRK2 pIC50 (converted)
Procedure, shortened: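 LanthaScreen TR-FRET read with fluorescein-LRRKtide and 134 μM ATP (Km) in Tris pH 8.5/10 mM MgCl2 buffer. The enzyme was preincubated 15 min with compound at room temperature, and the reaction ran 90 min at ambient temperature. Stopped with EDTA plus Tb anti-phospho-LRRKtide antibody; the 520/495 nm ratio gave a 4-parameter logistic IC50, mean of several runs.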

SMILES: Cc1cc2cnc(Nc3cnn(C)c3C)nc2cc1N1CCN([C@]2(C)COC[C@@H]2O)CC1 [Ex-2.1, (3R,4R)-4-(4-(2-((1,5-Dimethyl-1H-pyrazol-4-yl)amino)-6-methylquinazolin-7-yl)piperazin-1-yl)-4-methyltetrahydrofuran-3-ol]
- IC50: 0.576 nM

SMILES: OC1COCC12CCN(c1cc3nc(Nc4cnn(C5CC5(F)F)c4Cl)ncc3cc1Cl)CC2 (single isomer, unassigned) [Ex-3.57]
- IC50: 23.1 nM

SMILES: CN1CCN(c2cc3nc(Nc4cnn(C5(C)CC5)c4Cl)ncc3cc2Cl)CC1=O [Ex-4.44, 4-(6-chloro-2-{[5-chloro-1-(1-methylcyclopropyl)-1H-pyrazol-4-yl]amino}quinazolin-7-yl)-1-methylpiperazin-2-one]
- IC50: 20 nM

SMILES: Cn1nc(Cl)cc1Nc1ncc2cc(Cl)c(N3CCN(C4(C)COCC4O)CC3)cc2n1 (stereo not drawn)
- IC50: 5.97 nM

SMILES: CC1(O)CCN(c2cc3nc(Nc4cnn(C5CC5)c4)ncc3cc2Cl)CC1 [Ex-3.9, 1-{6-chloro-2-[(1-cyclopropyl-1H-pyrazol-4-yl)amino]quinazolin-7-yl}-4-methylpiperidin-4-ol]
- IC50: 5.9 nM

SMILES: CCn1ncc(Nc2ncc3cc(Cl)c(N4CCN(C5(C)COC5)CC4)cc3n2)c1C [Ex-4.13, 6-chloro-N-(1-ethyl-5-methyl-1H-pyrazol-4-yl)-7-[4-(3-methyloxetan-3-yl)piperazin-1-yl]quinazolin-2-amine]
- IC50: 6.83 nM

SMILES: Cc1cc2cnc(Nc3cnn(C4CC4)c3C)nc2cc1N1CCN(C2(C)COCC2O)CC1 (single isomer, unassigned) [Ex-5.4, (3S,4S) or (3R,4R) 4-(4-(2-((1-cyclopropyl-5-methyl-1H-pyrazol-4-yl)amino)-6-methylquinazolin-7-yl)piperazin-1-yl)-4-methyltetrahydrofuran-3-ol]
- IC50: 0.18 nM

SMILES: Cc1c(Nc2ncc3cc(Cl)c(N4CCN(C5COC(C)(C)C5)CC4)cc3n2)cnn1C1CC1 (single isomer, unassigned) [Ex-12.1]
- IC50: 2.93 nM

SMILES: CC1(O)CC2(CN(c3cc4nc(Nc5cnn(C6CC6)c5Cl)ncc4cc3Cl)C2)C1 [Ex-4.28, 2-{6-chloro-2-[(5-chloro-1-cyclopropyl-1H-pyrazol-4-yl)amino]quinazolin-7-yl}-6-methyl-2-azaspiro[3.3]heptan-6-ol]
- IC50: 1.05 nM

SMILES: CN1CCC2CCN(c3cc4nc(Nc5cnn(C6CC6)c5Cl)ncc4cc3Cl)C2C1 (stereo not drawn) [Ex-1.42, 6-chloro-N-(5-chloro-1-cyclopropyl-1H-pyrazol-4-yl)-7-(6-methyloctahydro-1H-pyrrolo[2,3-c]pyridin-1-yl)quinazolin-2-amine]
- IC50: 25.6 nM

SMILES: Cc1c(N2CCN(C3(C)COC3)CC2)c(Cl)cc2cnc(Nc3cnn(CC(F)(F)F)c3)nc12 [Ex-4.3, 6-Chloro-8-methyl-7-(4-(3-methyloxetan-3-yl)piperazin-1-yl)-N-(1-(2,2,2-trifluoroethyl)-1H-pyrazol-4-yl)quinazolin-2-amine]
- IC50: 3.36 nM

SMILES: CC1(O)C2CC1CN(c1cc3nc(Nc4cnn(C5CC5)c4Cl)ncc3cc1Cl)C2 (stereo not drawn) [Ex-1.41, 3-{6-chloro-2-[(5-chloro-1-cyclopropyl-1H-pyrazol-4-y)amino]quinazolin-7-yl}-6-methyl-3-azabicyclo[3.1.1]heptan-6-ol]
- IC50: 8.93 nM

SMILES: CC1(N2CCN(c3cc4nc(Nc5cnn(CC6CCC6)c5Cl)ncc4cc3Cl)CC2)COC1 [Ex-4.54, 6-chloro-N-[5-chloro-1-(cyclobutylmethyl)-1H-pyrazol-4-yl]-7-[4-(3-methyloxetan-3-yl)piperazin-1-yl]quinazolin-2-amine]
- IC50: 2.87 nM

SMILES: Cc1c(Nc2ncc3cc(Cl)c(N4CCN(C5COCC5O)CC4)cc3n2)cnn1CC(F)(F)F (single isomer, unassigned) [Ex-6.32, (3S,4S) or (3R,4R) 4-[4-(6-chloro-2-{[5-methyl-1-(2,2,2-trifluoroethyl)-1H-pyrazol-4-yl]amino}quinazolin-7-yl)piperazin-1-yl]oxolan-3-ol]
- IC50: 0.608 nM

SMILES: CC1CN(C2CCN(c3cc4nc(Nc5cnn(C6CC6)c5Cl)ncc4cc3Cl)CC2)C1 [Ex-1.43, 6-chloro-N-(5-chloro-1-cyclopropyl-1H-pyrazol-4-yl)-7-[4-(3-methylazetidin-1-yl)piperidin-1-yl]quinazolin-2-amine]
- IC50: 12.7 nM

SMILES: CC1(O)CC2(CN(c3cc4nc(Nc5cnn(C6(C)CC6)c5Cl)ncc4cc3Cl)C2)C1 [Ex-4.27, 2-(6-chloro-2-{[5-chloro-1-(1-methylcyclopropyl)-1H-pyrazol-4-yl]amino}quinazolin-7-yl)-6-methyl-2-azaspiro[3.3]heptan-6-ol]
- IC50: 1.6 nM

SMILES: OC1CCN(c2cc3nc(Nc4cnn(CC(F)F)c4Cl)ncc3cc2Cl)CC1 [Ex-1.21, 1-(6-chloro-2-{[5-chloro-1-(2,2-difluoroethyl)-1H-pyrazol-4-yl]amino}quinazolin-7-yl)piperidin-4-ol]
- IC50: 6.09 nM

SMILES: CC1CCC12CN(c1cc3nc(Nc4cnn(C5(C)CC5)c4Cl)ncc3cc1Cl)C2 (single isomer, unassigned) [Ex-4.26, (R) or (S) 6-chloro-N-[5-chloro-1-(1-methylcyclopropyl)-1H-pyrazol-4-yl]-7-(5-methyl-2-azaspiro[3.3]heptan-2-yl)quinazolin-2-amine]
- IC50: 9.09 nM

SMILES: Cc1c(Nc2ncc3ccc(N(C)C4COC4)cc3n2)cnn1C1CCOCC1 [Ex-1.47, N-7-methyl-N-2-[5-methyl-1-(oxan-4-yl)-1H-pyrazol-4-yl]-N-7-(oxetan-3-yl)quinazoline-2,7-diamine]
- IC50: 38.8 nM

SMILES: Cc1c(Nc2ncc3cc(Cl)c(N4CCN(C5(C)COCC5O)CC4)cc3n2)cnn1C1CC1(F)F (single isomer, unassigned) [Ex-6.41, (3S,4S) or (3R,4R) 4-[4-(6-chloro-2-{[1-(2,2-(R) or (S)difluorocyclopropyl)-5-methyl-1H-pyrazol-4-yl]amino}quinazolin-7-yl)piperazin-1-yl]-4-methyloxolan-3-ol]
- IC50: 32.9 nM

SMILES: Cc1nn(C2CC3(C2)CN(C2COC2)C3)cc1Nc1ncc2ccc(N3C(=O)C4CCC3C4)cc2n1 (single isomer, unassigned) [Ex-8.5, (1R,4S) or (1S,4R)-2-(2-((3-methyl-1-(2-(oxetan-3-yl)-2-azaspiro[3.3]heptan-6-yl)-1H-pyrazol-4-yl)amino)quinazolin-7-yl)-2-azabicyclo[2.2.1]heptan-3-one]
- IC50: 0.625 nM

SMILES: CC1(N2CCN(c3cc4nc(Nc5cnn(C(F)F)c5)ncc4cc3Cl)CC2)COC1 [Ex-4.57, 6-chloro-N-[1-(difluoromethyl)-1H-pyrazol-4-yl]-7-[4-(3-methyloxetan-3-yl)piperazin-1-yl]quinazolin-2-amine]
- IC50: 4.13 nM

SMILES: Clc1cc2cnc(Nc3cnn(C4CC4)c3Cl)nc2cc1N1CCC(N2CCC2)CC1 [Ex-1.28, 7-[4-(azetidin-1-yl)piperidin-1-yl]-6-chloro-N-(5-chloro-1-cyclopropyl-1H-pyrazol-4-yl)quinazolin-2-amine]
- IC50: 3.31 nM

SMILES: CC1(N2CCN(c3cc4nc(Nc5cnn(C(C)(C)C)c5)ncc4cc3Cl)CC2)COC1 [Ex-4.46, N-(1-tert-butyl-1H-pyrazol-4-yl)-6-chloro-7-[4-(3-methyloxetan-3-yl)piperazin-1-yl]quinazolin-2-amine]
- IC50: 0.792 nM

SMILES: CC(C)(O)Cn1cc(Nc2ncc3cc(Cl)c(N4CCC(O)CC4)cc3n2)cn1 [Ex-3.10, 1-(6-chloro-2-{[1-(2-hydroxy-2-methylpropyl)-1H-pyrazol-4-yl]amino}quinazolin-7-yl)piperidin-4-ol]
- IC50: 0.407 nM

SMILES: CO[C@H]1CCN(c2cc3nc(Nc4cnn(C5(C)CC5)c4Cl)ncc3cc2Cl)C1 [Ex-4.40, 6-chloro-N-[5-chloro-1-(1-methylcyclopropyl)-1H-pyrazol-4-yl]-7-[(3S)-3-methoxypyrrolidin-1-yl]quinazolin-2-amine]
- IC50: 15.2 nM

SMILES: Cc1c(Nc2ncc3cc(Cl)c(N4CCC(C)(O)C(C)C4)cc3n2)cnn1C1CC1 (single isomer, unassigned) [Ex-3.50, (3R,4R) or (3S,4S) or (3R,4S) or (3S,4R) 1-{6-chloro-2-[(1-cyclopropyl-5-methyl-1H-pyrazol-4-yl)amino]quinazolin-7-yl}-3,4-dimethylpiperidin-4-ol]
- IC50: 0.821 nM

SMILES: Cc1c(Nc2ncc3ccc(N4C(=O)OC[C@@H]4C)cc3n2)cnn1C1C[C@@H](C)O[C@@H](C)C1 (single isomer, unassigned) [Ex-7.6]
- IC50: 1.57 nM

SMILES: C[C@H]1COC(=O)N1c1ccc2cnc(Nc3cn(C)nc3C(F)F)nc2c1 [Ex-8.12, (4S)-3-(2-{[3-(difluoromethyl)-1-methyl-1H-pyrazol-4-yl]amino}quinazolin-7-yl)-4-methyl-1,3-oxazolidin-2-one]
- IC50: 1.63 nM

SMILES: Cn1ncc(Nc2ncc3ccc(N4C(=O)C5CCC4C5)cc3n2)c1C(F)(F)F (single isomer, unassigned) [Ex-4.4, 2-(2-{[1-methyl-5-(trifluoromethyl)-1H-pyrazol-4-yl]amino}quinazolin-7-yl)-2-azabicyclo[2.2.1]heptan-3-one]
- IC50: 24.6 nM

SMILES: COCC12CC(n3cc(Nc4ncc5cc(Cl)c(N6CCC7(CC6)COC(CO)C7)cc5n4)cn3)(C1)C2 (single isomer, unassigned) [Ex-3.16, (R) or (S)-{8-[6-chloro-2-({1-[3-(methoxymethyl)bicyclo[1.1.1]pentan-1-yl]-1H-pyrazol-4-yl}amino)quinazolin-7-yl]-2-oxa-8-azaspiro[4.5]decan-3-yl}methanol]
- IC50: 0.218 nM

SMILES: CC1(N2CCN(c3cc4nc(Nc5cnn(C6CC6(F)F)c5Cl)ncc4cc3Cl)CC2)COC1 (single isomer, unassigned) [Ex-4.61, 6-chloro-N-[5-chloro-1-(2,2-(R) or (S)difluorocyclopropyl)-1H-pyrazol-4-yl]-7-[4-(3-methyloxetan-3-yl)piperazin-1-yl]quinazolin-2-amine]
- IC50: 7.3 nM

SMILES: Cc1c(Nc2ncc3cc(Cl)c(N4CCN(C5(C)COCC5O)CC4)cc3n2)cnn1C1CC1 (single isomer, unassigned) [Ex-6.22, (3S,4S) or (3R,4R) 4-(4-{6-chloro-2-[(1-cyclopropyl-5-methyl-1H-pyrazol-4-yl)amino]quinazolin-7-yl}piperazin-1-yl)-4-methyloxolan-3-ol]
- IC50: 33.5 nM
